1 substance from patent publication US20260069656A1, “Nutritive Polypeptides and Formulations Thereof, and Methods of Production and Use Thereof” (Axcella Health Inc., priority 2013, published 2026) can be followed below.

Data set [1] in a line: pH solubility screen in Citric Acid / Dibasic Sodium Phosphate buffers. In kind it is physicochemical. The method, then: pH Solubility. […] Protein was either lyophilized and then resuspended in buffer cocktail mixtures, or concentrated and then spiked into buffer cocktail mixtures at a final protein concentration of 5 to 30 mg/ml. As a control, protein was also dissolved in a solution of 8 M urea. Protein solutions were shaken for 10 min at room temperature. Turbidity of proteins was determined by measuring the absorbance of protein solutions at 650 nm. The protein solution was then centrifuged for 10 min at 1100×g to pellet undissolved or precipitated protein. The soluble protein fraction (supernatant) was sampled and protein concentration was measured by one or more of the following methods: Coomassie Plus Protein Assay (Pierce), Chip electrophoresis, gel electrophoresis, and/or absorbance at 280 nm. The pH range over which select proteins remained greater than 80% soluble as determined by Bradford and the A650 value are listed in Table E31C.

The next data set deals with GLP-2. The data set is described as follows: Total GLP-2 ELISA, plasma GLP-2 in healthy fasted rats. In kind it is in vivo, rat. The method, then: Animals were treated and acutely dosed with test articles as part of pharmacokinetic rodent experiments according to methods described herein. In this experiment, two test articles were analyzed, vehicle and a nutritive formulation of SEQID-240, dosed at 1.54 g/kg.
Total GLP-2 was measured with Millipore Total GLP-2 ELISA Kit (Millipore, EZGLP2-37K). The ELISA kit was equilibrated to room temperature for a minimum of 30 minutes prior to running the assay. The kit GLP-2 Standard, Quality Control 1 and Quality Control 2 were reconstituted with 500 μL MilliQ water, inverted 5 times and incubated at room temperature for 5 minutes, then gently vortexed to mix. The standard curve was prepared by diluting the GLP-2 Standard serially 1:1 in kit Assay Buffer to generate an eight point standard curve including 0 ng/mL GLP-2. Plasma samples were thawed on ice and centrifuged for 10 minutes at approximately 1109× rcf to pellet insoluble material. Fasted plasma matrix from untreated, fasted rat was prepared for running the standard and quality controls in duplicate at 20% (2×).
1× Wash Buffer was prepared in a clean 500 mL glass bottle by combining 50 mL 10× Wash Buffer with 450 mL MilliQ water. Strips were prepared by washing 3 times with 300 μL 1× Wash Buffer applied with a 30-300 μL 8-channel pipette. Between washes the wash buffer was decanted into a waste receptacle and the plate tapped sharply on a stack of paper towels to remove remaining wash buffer.
Following the first wash, 90 μL of Assay Buffer was added to sample wells, and 50 μL of 20% matrix in Assay Buffer was added to all standard and quality control wells. 10 μL of sample was added to each sample well and 50 μL of standard and quality control were added to matrix containing wells. Samples, standards and quality control wells were run in duplicate, except for 0 ng/mL GLP-2 standard which was run in quadruplicate.
The plate was sealed with a plastic plate seal and incubated at room temperature on a horizontal plate shaker at 450 rpm for 2 hours. Following the first incubation, the plate was washed three times with 1× Wash Buffer, decanting into a waste receptacle and tapping the inverted plate sharply on a stack of paper towels to remove excess wash buffer after each wash.
100 μL of Detection Antibody was added to each well and the plate was sealed with a plastic plate seal and incubated at room temperature on a horizontal plate shaker at 450 rpm for 1 hour. […]
Absorbance was measured on a SynergyMX Plate Reader at 450 nm and 590 nm. Measured values were the difference between 450 nm and 590 nm absorbance values.
Data were analyzed with GraphPad Prism 6.03. […]
For orientation: ELISA stands for enzyme-linked immunosorbent assay.

For the substance “SEQID-00240: nutritive polypeptide naturally produced in Cow, recombinantly expressed in E. coli (DLEGSLEQEKKLRMDLERAKRKLEGDLKLAQESTMDIENDKQQLDEKLKK; listed as Bos taurus)”, the “pH Range where Protein is >80% detected as Soluble and A650 <1 OD: Low” value in data set [1] (lower pH of range) was determined as 6.6. For the same substance, the “pH Range where Protein is >80% detected as Soluble and A650 <1 OD: High” value in data set [1] (upper pH of range) was 9.1. Moreover, the “GLP-2 area under curve vs vehicle” value in the data set with GLP-2 (0-60 minutes, P<0.005) is “significantly greater in the SEQID-00240 treatment compared to vehicle”; in the data set with GLP-2 (0-240 minutes, P<0.01) it was “significantly greater in the SEQID-00240 treatment compared to vehicle”. In addition, in the data set on GLP-2 (1.54 g/kg, at 15, 30, 60 and 120 minutes following treatment), the “total GLP-2 concentration vs vehicle” value is reported as “statistically significantly greater than vehicle”. For the same substance, the “total GLP-2 concentration relative to time 0” value with GLP-2 (1.54 g/kg, at 15, 30 and 60 minutes following gavage) is recorded as “statistically significant increase in GLP-2 concentration relative to time 0”.
